Assay: Rate of dissolution in H2O at 25° C.
Assay type: physicochemical

Row | Rate of dissolution in H2O at 25° C. (grade in words) | Rate of dissolution in H2O at 25° C. (amount dissolved) (in 60 minutes) | Rate of dissolution in H2O at 25° C. (amount dissolved) (in 5 minutes) | Rate of dissolution compared to the polymorphic forms (Forms 1, 2, or 3) | SMILES
1 | Very low | (<0.2% in 60 | – | – | C=C1C[C@@]23CC[C@H]4[C@@](C)(CCC[C@@]4(C)C(=O)O[C@@H]4O[C@H](CO)[C@@H](O)[C@H](O)[C@H]4O)[C@@H]2CC[C@]1(O[C@@H]1O[C@H](CO)[C@@H](O)[C@H](O[C@@H]2O[C@H](CO)[C@@H](O)[C@H](O)[C@H]2O)[C@H]1O[C@@H]1O[C@H](CO)[C@@H](O)[C@H](O)[C@H]1O)C3 [Form 1, rebaudioside A]
2 | Intermediate | – | (<30% in 5 | – | C=C1C[C@@]23CC[C@H]4[C@@](C)(CCC[C@@]4(C)C(=O)O[C@@H]4O[C@H](CO)[C@@H](O)[C@H](O)[C@H]4O)[C@@H]2CC[C@]1(O[C@@H]1O[C@H](CO)[C@@H](O)[C@H](O[C@@H]2O[C@H](CO)[C@@H](O)[C@H](O)[C@H]2O)[C@H]1O[C@@H]1O[C@H](CO)[C@@H](O)[C@H](O)[C@H]1O)C3 [Form 2, rebaudioside A]
3 | High | – | (>30% in 5 | – | C=C1C[C@@]23CC[C@H]4[C@@](C)(CCC[C@@]4(C)C(=O)O[C@@H]4O[C@H](CO)[C@@H](O)[C@H](O)[C@H]4O)[C@@H]2CC[C@]1(O[C@@H]1O[C@H](CO)[C@@H](O)[C@H](O[C@@H]2O[C@H](CO)[C@@H](O)[C@H](O)[C@H]2O)[C@H]1O[C@@H]1O[C@H](CO)[C@@H](O)[C@H](O)[C@H]1O)C3 [Form 3, rebaudioside A]
4 | High | – | (>35% in 5 | improved rate of dissolution | C=C1C[C@@]23CC[C@H]4[C@@](C)(CCC[C@@]4(C)C(=O)O[C@@H]4O[C@H](CO)[C@@H](O)[C@H](O)[C@H]4O)[C@@H]2CC[C@]1(O[C@@H]1O[C@H](CO)[C@@H](O)[C@H](O[C@@H]2O[C@H](CO)[C@@H](O)[C@H](O)[C@H]2O)[C@H]1O[C@@H]1O[C@H](CO)[C@@H](O)[C@H](O)[C@H]1O)C3 [Form 4, rebaudioside A]
